Experimental findings from patent US20160151318A1, “USE OF NITRATED LIPIDS FOR TREATMENT OF LIPID DISORDERS AND OBESITY, AND LIPID- AND OBESITY-RELATED CONDITIONS” (THE UNIVERSITY OF UTAH RESEARCH FOUNDATION, priority 2008, published 2016) are described below.

One assay relates to Zucker obese rats. The experiment in a line: Chronic infusion of OA-NO2 or OA in Zucker obese rats (obesity, hyperlipidemia, kidney injury). It is filed as in vivo, rat. Particulars: 7.5 μg/kg/day via osmotic mini-pump; for reduction of proteinuria (urinary protein excretion): 24-hour urine (FIG. 7); for plasma free fatty acid levels (non-esterified fatty acid): fasted (FIG. 3B); for plasma cholesterol levels: fasted (FIG. 4); for plasma HDL levels: fasted (FIG. 5A); for body weight gain: male 4-mo-old Zucker obese rats, vs. vehicle control (FIG. 1). The method, then: Male 4-month-old Zucker obese and Zucker diabetic rats were from Charles River Laboratory (Wilmington, Mass.). All animals were housed in an air-conditioned room with a 12-hour light/dark cycle. All procedures and protocols were in accordance with guidelines set by the Laboratory Animal Care Committee at the University of Utah. Two strains of Zucker rats, obese and diabetes (ZDF) (Charles River), were treated with vehicle (ethanol), OA-NO2 at 7.5 μg/kg/d, or OA at 7.5 μg/kg/d via an osmotic mini-pump. Under isoflurane anesthesia, the mini-pump was implanted under the skin of the neck area. Body weight, food intake, and collections of blood and urine samples were determined before and after treatment. Animals were fasted from 6:00 pm to 9:00 am before blood sampling. Blood sampling was conducted by making a small cut (˜2 mm) in the tail using razor blade. 24-hour urine was collected using metabolic cages. Adult Zucker obese rats develop severe obesity and hyperlipidemia but are relatively resistant to diabetes. Therefore, these animals were used for testing the weight-loss and lipid lowering effects of OA-NO2. To determine whether these effects are directly attributable to the nitration of the fatty acid, the parent fatty acid (OA) was used as a control. Starting from 4 mo of age, Zucker obese rats were chronically infused for 2 weeks with vehicle, OA-NO2 (9-nitrooleic acid and 10-nitrooleic acid are purchased from Cayman Chemical, Ann Arbor, MI and used as an 1:1 mixture), or OA each at 7.5 μg/kg/day via an osmotic mini-pump. Parameters including body weight, food intake, the lipid profile, oxidative stress, and urinary protein excretion were determined. Animals were fasted from 6:00 pm to 9:00 am before blood sampling.

The subject of the next assay is Zucker diabetic rats. The experiment in a line: Chronic infusion of OA-NO2 in Zucker diabetic rats (ZDF strain). The format is in vivo, rat. Particulars: 7.5 μg/kg/d via osmotic mini-pumps, 1 week, fasted. As to the method: Male 4-month-old Zucker obese and Zucker diabetic rats were from Charles River Laboratory (Wilmington, Mass.). All animals were housed in an air-conditioned room with a 12-hour light/dark cycle. All procedures and protocols were in accordance with guidelines set by the Laboratory Animal Care Committee at the University of Utah.
Two strains of Zucker rats, obese and diabetes (ZDF) (Charles River), were treated with vehicle (ethanol), OA-NO2 at 7.5 μg/kg/d, or OA at 7.5 μg/kg/d via an osmotic mini-pump. Under isoflurane anesthesia, the mini-pump was implanted under the skin of the neck area. Body weight, food intake, and collections of blood and urine samples were determined before and after treatment. Animals were fasted from 6:00 pm to 9:00 am before blood sampling. Blood sampling was conducted by making a small cut (˜2 mm) in the tail using razor blade. 24-hour urine was collected using metabolic cages.
To evaluate the efficacy of OA-NO2 for treatment of diabetes, Zucker diabetic rats were used. These animals develop severe hyperglycemia and hyperinsulinemia, the two major parameters of type 2 diabetes.

As to nitrooleic acid [OA-NO2], the “plasma TBARS (index of systemic oxidative stress), increase in obese vs. lean rats” value with Zucker obese rats (Zucker obese rats, 2 weeks (FIG. 6)) is “significantly attenuated”. Further, in the assay on Zucker obese rats (Zucker obese rats, 2 weeks), the “reduction of proteinuria (urinary protein excretion)” value is 50%, the “plasma free fatty acid levels (non-esterified fatty acid)” value is recorded as “almost completely normalized”, the plasma cholesterol levels entry is “unaffected” and the “plasma HDL levels” value is given as “significantly increased”. Besides, in the assay with Zucker obese rats (Zucker obese rats, 2 weeks, fasted, vs. vehicle control (FIG. 3A)), the plasma triglyceride entry is “significant triglyceride-lowering effect”. In the assay with Zucker obese rats (Zucker obese rats, 2 weeks, vs. vehicle (FIG. 2)), the food intake entry was “significantly reduced”. The body weight gain result in the assay on Zucker obese rats (2 weeks) is “less than that in the vehicle control”. Besides, the “hyperglycemia (plasma glucose)” value in the assay with Zucker diabetic rats (vs. Day 0 (FIG. 8A)) is recorded as “significantly attenuated”. In the assay on Zucker diabetic rats (vs. Day 0 (FIG. 8B)), the plasma insulin levels result is given as “tended to reduce”.
`CCCCCCCC/C=C\CCCCCCCC(=O)O` [OA, Oleic acid, reference compound]: in the assay on Zucker obese rats (Zucker obese rats, 2 weeks), the “reduction of proteinuria (urinary protein excretion)” value is listed as “no significant effect”, the “plasma free fatty acid levels (non-esterified fatty acid)” value is “lack of an effect”, the plasma cholesterol levels result is recorded as “unaffected” and the “plasma HDL levels” value is reported as “ineffective”. In addition, the body weight gain result in the assay with Zucker obese rats (2 weeks) was “not different”.
